From US20260132158A1, “PHENYL OXY AMIDE KINASE INHIBITORS” (THE TRANSLATIONAL GENOMICS RESEARCH INSTITUTE, priority 2022, published 2026)

Molecular target: T1, RON Kinase (Homo sapiens, UniProt Q04912)
T1 construct: purchased Promega V8071
Assay: RON Kinase ADP Glo Assay
Assay type: biochemical
Details: ratio cMET IC50 / RON IC50
Experimental: RON Kinase ADP Glo Assay • Assay Buffer: 40 mM Tris-HCl, pH7.5, 20 mM MgCl2, 0.1 mg/mL BSA • RON Kinase+ADP-Glo™ Assay (Promega #: V8071) • Substrate: […] Axltide • Enzyme: 100 ng/μL RON Kinase • ATP: 10 mM • ADP-Glo™ Reagent • Kinase Detection Reagent • 384-well white assay plates Kinase assay was done by following instructions from the kit. Briefly, a ten-point serial dilution of compound was prepared at 5× in assay buffer with the final assay concentrations starting at 300 nM, 100 nM, 30 nM, 10 nM . . . 0 nM. Enzyme, substrate, and ATP were used at 25 ng, 2000 ng, and 25 µM, respectively. The assay plate was set up by mixing the components in a total reaction volume of 10 μL per well. The plate was centrifuged gently for 10 seconds and incubated at room temperature (RT) for 60 minutes in the dark. The ADP-Glo Reagent and kinase detection reagent were added and incubated as recommended. The reaction was quantified by measuring luminescence on the Perkin Elmer Envision plate reader.

T1 sequence (Q04912 25-1400): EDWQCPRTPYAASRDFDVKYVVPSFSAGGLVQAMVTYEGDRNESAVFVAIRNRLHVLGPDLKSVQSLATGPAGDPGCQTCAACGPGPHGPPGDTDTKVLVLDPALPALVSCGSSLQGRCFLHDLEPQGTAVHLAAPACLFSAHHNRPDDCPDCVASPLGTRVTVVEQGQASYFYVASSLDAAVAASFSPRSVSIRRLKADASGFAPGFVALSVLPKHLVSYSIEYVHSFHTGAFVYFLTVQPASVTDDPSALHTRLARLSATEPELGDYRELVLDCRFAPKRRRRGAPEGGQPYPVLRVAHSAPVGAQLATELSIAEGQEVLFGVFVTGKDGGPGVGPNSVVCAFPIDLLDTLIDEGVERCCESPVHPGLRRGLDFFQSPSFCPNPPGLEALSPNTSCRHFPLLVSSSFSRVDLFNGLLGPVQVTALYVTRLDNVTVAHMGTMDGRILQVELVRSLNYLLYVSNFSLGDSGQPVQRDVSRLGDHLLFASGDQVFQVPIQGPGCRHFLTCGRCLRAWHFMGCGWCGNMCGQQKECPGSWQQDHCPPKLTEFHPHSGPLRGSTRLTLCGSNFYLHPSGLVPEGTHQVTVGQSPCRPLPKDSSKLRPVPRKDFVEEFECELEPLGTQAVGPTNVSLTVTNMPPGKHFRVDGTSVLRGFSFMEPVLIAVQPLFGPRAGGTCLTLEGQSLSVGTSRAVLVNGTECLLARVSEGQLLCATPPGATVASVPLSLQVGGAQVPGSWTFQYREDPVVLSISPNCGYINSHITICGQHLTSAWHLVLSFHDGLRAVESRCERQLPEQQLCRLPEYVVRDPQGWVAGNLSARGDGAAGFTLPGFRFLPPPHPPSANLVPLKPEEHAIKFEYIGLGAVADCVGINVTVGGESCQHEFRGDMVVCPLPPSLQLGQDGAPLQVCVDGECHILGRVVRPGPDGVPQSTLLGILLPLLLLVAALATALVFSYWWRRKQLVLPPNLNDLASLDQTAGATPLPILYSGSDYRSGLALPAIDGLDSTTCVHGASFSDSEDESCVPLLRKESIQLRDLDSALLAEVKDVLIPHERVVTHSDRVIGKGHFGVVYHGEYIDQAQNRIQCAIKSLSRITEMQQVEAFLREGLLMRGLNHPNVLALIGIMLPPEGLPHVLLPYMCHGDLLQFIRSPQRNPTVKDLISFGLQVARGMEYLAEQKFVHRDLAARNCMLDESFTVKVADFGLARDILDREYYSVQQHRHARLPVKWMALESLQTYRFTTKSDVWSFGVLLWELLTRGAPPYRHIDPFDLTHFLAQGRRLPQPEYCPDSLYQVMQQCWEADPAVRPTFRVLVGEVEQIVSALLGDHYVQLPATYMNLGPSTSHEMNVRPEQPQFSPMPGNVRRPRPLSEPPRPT

| Compound | Fold Selectivity (cMET/RON) |
| --- | --- |
| C=CC(=O)N1CCCC(c2cccc(Nc3nccc(Oc4ccc(NC(=O)c5cnn(-c6ccc(F)cc6)c5C(F)(F)F)cc4F)n3)c2)C1 (centres unmarked) [Compound 38, N-(4-((2-((3-(1-acryloylpiperidin-3-yl)phenyl)amino)pyrimidin-4-yl)oxy)-3-fluorophenyl)-1-(4-fluorophenyl)-5-(trifluoromethyl)-1H-pyrazole-4-carboxamide] | +++ (represents a value greater than 3 up to 50) |
| CCCN1CCN(CCc2cccc(Nc3nccc(Oc4ccc(NC(=O)c5cnn(-c6ccc(F)cc6)c5C(F)(F)F)cc4F)n3)c2)CC1 [Compound 47, N-(3-Fluoro-4-((2-((3-(2-(4-Propylpiperazin-1-Yl)Ethyl)Phenyl)Amino)Pyrimidin-4-Yl)Oxy)Phenyl)-1-(4-Fluorophenyl)-5-(Trifluoromethyl)-1H-Pyrazole-4-Carboxamide] | +++ (represents a value greater than 3 up to 50) |
| CC(C)N1CCN(CCc2cccc(Nc3nccc(Oc4ccc(NC(=O)c5cnn(-c6ccc(F)cc6)c5C(F)(F)F)cc4F)n3)c2)CC1 [Compound 48, N-[3-fluoro-4-(2-{m-[2-(4-isopropyl-1-piperazinyl)ethyl]phenylamino}-4-pyrimidinyloxy)phenyl]-1-(p-fluorophenyl)-5-(trifluoromethyl)-4-pyrazolecarboxamide] | ++ (represents a value greater than 0.5 up to 3) |
| Cn1cc(-c2c(Oc3ccc(NC(=O)c4cc(-c5ccc(F)cc5)no4)cc3F)ccnc2N)cn1 [Compound 21, N-(4-((2-amino-3-(1-methyl-1H-pyrazol-4-yl)pyridin-4-yl)oxy)-3-fluorophenyl)-3-(4-fluorophenyl)isoxazole-5-carboxamide] | + (represents a value below 0.5) |
| CP(C)(=O)c1cncnc1Oc1ccc(NC(=O)c2cnn(-c3ccc(F)cc3)c2C(F)(F)F)cc1F [Compound 54, N-{4-[5-(dimethylphosphoryl)-4-pyrimidinyloxy]-3-fluorophenyl}-1-(p-fluorophenyl)-5-(trifluoromethyl)-4-pyrazolecarboxamide] | +++ (represents a value greater than 3 up to 50) |
| C=CC(=O)N1CCN(C(=O)Cc2cccc(Nc3nccc(Oc4ccc(NC(=O)c5cnn(-c6ccc(F)cc6)c5C(F)(F)F)cc4F)n3)c2)CC1 [Compound 50, N-[4-(2-{m-[2-(4-acryloyl-1-piperazinyl)-2-oxoethyl]phenylamino}-4-pyrimidinyloxy)-3-fluorophenyl]-1-(p-fluorophenyl)-5-(trifluoromethyl)-4-pyrazolecarboxamide] | +++ (represents a value greater than 3 up to 50) |
| Cn1cc(-c2c(Oc3ccc(NC(=O)c4ccnc(-c5ccc(F)cc5)c4C(F)(F)F)cc3F)ccnc2N)cn1 [Compound 12, N-(4-((2-amino-3-(1-methyl-1H-pyrazol-4-yl)pyridin-4-yl)oxy)-3-fluorophenyl)-2-(4-fluorophenyl)-3-(trifluoromethyl)isonicotinamide] | +++ (represents a value greater than 3 up to 50) |
| CCOc1ccn(-c2ccc(F)cc2)c(=O)c1C(=O)Nc1ccc(Oc2ccnc(N)c2P(C)(C)=O)c(F)c1 [Compound 58, N-{4-[2-amino-3-(dimethylphosphoryl)-4-pyridyloxy]-3-fluorophenyl}-4-ethoxy-1-(4-fluorophenyl)-2-oxo-1,2-dihydronicotinamide] | + (represents a value below 0.5) |
| C=CC(=O)NC1CCCC(Nc2nccc(Oc3ccc(NC(=O)c4cnn(-c5ccc(F)cc5)c4C(F)(F)F)cc3F)n2)C1 (single isomer, unassigned) [44 (peak 1), N-(4-((2-((3-acrylamidocyclohexyl)amino)pyrimidin-4-yl)oxy)-3-fluorophenyl)-1-(4-fluorophenyl)-5-(trifluoromethyl)-1H-pyrazole-4-carboxamide] | +++ (represents a value greater than 3 up to 50) |
| C=CC(=O)NC1CCCC(Nc2nccc(Oc3ccc(NC(=O)c4cnn(-c5ccc(F)cc5)c4C(F)(F)F)cc3F)n2)C1 (single isomer, unassigned) [44 (peak 2), N-(4-((2-((3-acrylamidocyclohexyl)amino)pyrimidin-4-yl)oxy)-3-fluorophenyl)-1-(4-fluorophenyl)-5-(trifluoromethyl)-1H-pyrazole-4-carboxamide] | +++ (represents a value greater than 3 up to 50) |
| O=C(Nc1ccc(Oc2ccnc(Nc3cccc(CCN4CCN(C5CC5)CC4)c3)n2)c(F)c1)c1cnn(-c2ccc(F)cc2)c1C(F)(F)F [Compound 49, N-(4-((2-((3-(2-(4-cyclopropylpiperazin-1-yl)ethyl)phenyl)amino)pyrimidin-4-yl)oxy)-3-fluorophenyl)-1-(4-fluorophenyl)-5-(trifluoromethyl)-1H-pyrazole-4-carboxamide] | ++ (represents a value greater than 0.5 up to 3) |
| C=CC(=O)N1CCN(CCc2cccc(Nc3nccc(Oc4ccc(NC(=O)c5cnn(-c6ccc(F)cc6)c5C(F)(F)F)cc4F)n3)c2)CC1 [Compound 43, N-[4-(2-{m-[2-(4-acryloyl-1-piperazinyl)ethyl]phenylamino}-4-pyrimidinyloxy)-3-fluorophenyl]-1-(p-fluorophenyl)-5-(trifluoromethyl)-4-pyrazolecarboxamide] | +++ (represents a value greater than 3 up to 50) |
| Cn1cc(-c2c(Oc3ccc(NC(=O)c4nnn(-c5ccc(F)cc5)c4C(F)(F)F)cc3F)ccnc2N)cn1 [Compound 6, N-(4-((2-amino-3-(1-methyl-1H-pyrazol-4-yl)pyridin-4-yl)oxy)-3-fluorophenyl)-1-(4-fluorophenyl)-5-(trifluoromethyl)-1H-1,2,3-triazole-4-carboxamide] | ++ (represents a value greater than 0.5 up to 3) |
| COc1cc(Nc2nccc(Oc3ccc(NC(=O)c4cnn(-c5ccc(F)cc5)c4C(F)(F)F)cc3F)n2)cc(OC)c1 [Compound 24, N-(4-((2-((3,5-dimethoxyphenyl)amino)pyrimidin-4-yl)oxy)-3-fluorophenyl)-1-(4-fluorophenyl)-5-(trifluoromethyl)-1H-pyrazole-4-carboxamide] | +++ (represents a value greater than 3 up to 50) |
